Source: US4005093A, “2-Naphthyl-lower-alkylamines” (Sterling Drug Inc., priority 1975, dated 1977)
Structures can show the parent of a compound that is named as a salt.

What was measured:
[1] = system: carrageenin-induced foot edema; assay: inhibition of carrageenin-induced foot edema test (carrageenin edema, CE); type: in vivo; conditions: oral
Experimental: (§1) Anti-inflammatory activity was determined using (1) the inhibition of carrageenin-induced foot edema test essentially described by Van Arman et al., J. Pharmacol. Exptl. Therap. 150, 328 (1965) as modified by Winter et al., Proc. Soc. Exp. Biol. and Med. 111, 544 (1962) and (2) a modification of the inhibition of adjuvant-induced arthritis test described by Pierson, J. Chronic Diseases 16, 863 (1963) and Glenn et al., Am. J. Vet. Res. 26, 1180 (1965). […] Data so-obtained, given in terms of percent inhibition at a dose expressed in terms of […] (μM)/kg., are given below. All data were obtained on oral administration.

[2] = system: adjuvant-induced arthritis; assay: modification of the inhibition of adjuvant-induced arthritis test (adjuvant arthritis, AA); type: in vivo; conditions: oral
Experimental: as §1

[3] = dose 0.08 (millimoles (μM)/kg [sic]), hydrochloride
[4] = dose 0.324 millimoles (μM)/kg [sic], hydrochloride
[5] = dose 0.01 (millimoles (μM)/kg [sic])
[6] = dose 0.04 millimoles (μM)/kg [sic], hydrochloride
[7] = dose 0.16 millimoles (μM)/kg [sic], hydrochloride
[8] = dose 0.08 (millimoles (μM)/kg [sic])
[9] = dose 0.324 millimoles (μM)/kg [sic]
[10] = dose 0.16 millimoles (μM)/kg [sic]
[11] = dose 0.005 (printed millimoles (μM)/kg)
[12] = dose 0.02 (printed millimoles (μM)/kg)

Row | Structure (SMILES) | CE (% Inhib./μM/kg.) [1, 3] [%] | CE (% Inhib./μM/kg.) [1, 4] [%] | AA (% Inhib./μM/kg.) [2, 5] [%] | AA (% Inhib./μM/kg.) [2, 7] [%] | CE (% Inhib./μM/kg.) [1, 8] [%] | CE (% Inhib./μM/kg.) [1, 9] [%] | further results
1 | COc1ccc2cc(C(C)CN3CCCCC3CC3CCCCC3)ccc2c1.Cl (stereo not drawn) [1 (α-Isomer), 2-cyclohexylmethyl-1-[2-(6-methoxy-2-naphthyl)-2-methylethyl]piperidine hydrochloride] | 14 | 40 | 0 | 86 | – | – | AA (% Inhib./μM/kg.) [2, 6]: 8%
2 | COc1ccc2cc(C(C)CN3CCCCC3CC3CCCCC3)ccc2c1.Cl (stereo not drawn) [1 (β-Isomer), 2-cyclohexylmethyl-1-[2-(6-methoxy-2-naphthyl)-2-methylethyl]piperidine hydrochloride] | 16 | 47 | 0 | 89 | – | – | AA (% Inhib./μM/kg.) [2, 6]: 12%
3 | CCN(CC)CCCC(C)NCC(C)c1ccc2cc(OC)ccc2c1 (stereo not drawn) [Example 6, N-[2-(6-methoxy-2-naphthyl)-2-methylethyl]-N-[5-(N',N'-diethyl-amino)-2-pentyl]amine] | – | – | – | – | 28 | 26 | AA (% Inhib./μM/kg.) [2, 10]: 73%
4 | COc1ccc2cc(CCN3CCCCC3CC3CCCCC3)ccc2c1 (stereo not drawn) [Example 5, 2-cyclohexylmethyl-1-[2-(6-methoxy-2-naphthyl)ethyl]piperidine] | – | – | – | – | 29 | 68 | AA (% Inhib./μM/kg.) [2, 9]: 55%
5 | COc1ccc2cc(C(C)CN3CCCCC3CC3CCCCC3)ccc2c1.Cl (stereo not drawn) [1 (γ-Isomer), 2-cyclohexylmethyl-1-[2-(6-methoxy-2-naphthyl)-2-methylethyl]-piperidine hydrochloride] | 24 | 45 | – | 86 | – | – | AA (% Inhib./μM/kg.) ([2]; dose 0.018 (printed millimoles (μM)/kg)): 2%; AA (% Inhib./μM/kg.) ([2]; dose 0.053 (printed millimoles (μM)/kg)): 49%
6 | COc1ccc2cc(C(C)CN3CCCCC3CCC3CCCCC3)ccc2c1 (stereo not drawn) [Example 3, 2-(2-cyclohexylethyl)-1-[2-(6-methoxy-2-naphthyl)-2-methylethyl]-piperidinehydrochloride] | – | – | – | – | 66 | 52 | AA (% Inhib./μM/kg.) [2, 11]: 0%; AA (% Inhib./μM/kg.) [2, 12]: 40%; AA (% Inhib./μM/kg.) [2, 8]: 16%
7 | COc1ccc2cc(C(C)CN3CCCCC3C3CCCCC3)ccc2c1 (stereo not drawn) [Example 2, 2-cyclohexyl-1-[2-(6-methoxy-2-naphthyl)-2-methylethyl-]piperidine hydrochloride] | – | – | 17 | – | 35 | 69 | AA (% Inhib./μM/kg.) ([2]; dose 0.04 millimoles (μM)/kg [sic]): 31%; AA (% Inhib./μM/kg.) [2, 10]: 61%
8 | COc1ccc2cc(C(C)CN3CCC(CCC4CCCCC4)CC3)ccc2c1 (stereo not drawn) [Example 4, 4-(2-cyclohexylethyl)-1-[2-(6-methoxy-2-naphthyl)-2-methylethyl]-piperidine] | – | – | – | – | 22 | 38 | AA (% Inhib./μM/kg.) [2, 11]: 0%; AA (% Inhib./μM/kg.) [2, 12]: 0%; AA (% Inhib./μM/kg.) [2, 8]: 34%
